#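 All cell lines were grown in 96-well plates and treated with compound for 48 hours. GI50: concentration for 50% inhibition of growth.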 Active and inactive are the calls of the source. No stated cut-off is given here; in the data, active = GI50 up to about 1.1 µM and inactive = higher.
# Tests used:
# Experiment in all cases: NCI anticancer screen, dose series, 48 h
# [1] = tested on: CCRF-CEM
# [2] = tested on: OVCAR-3
# [3] = tested on: M14
# [4] = tested on: NCI-H460
# [5] = tested on: NCI-H23
# [6] = tested on: LXFL 529
# [7] = tested on: KM12
# [8] = tested on: CAKI-1
# [9] = tested on: SF-268
# [10] = tested on: ACHN
# [11] = tested on: UO-31
# [12] = tested on: SNB-19
# [13] = tested on: UACC-257
# [14] = tested on: LOX IMVI
# [15] = tested on: 786-0
# [16] = tested on: K562
# [17] = tested on: Malme-3M
# [18] = tested on: EKVX
# [19] = tested on: UACC-62
# [20] = tested on: KM-20L2
# [21] = tested on: SNB-78
# [22] = tested on: SF-295
# [23] = tested on: HCT-116
# [24] = tested on: M19-MEL
# [25] = tested on: XF498
# [26] = tested on: DLD-1
# [27] = tested on: MOLT-4
# [28] = tested on: SW-620
# [29] = tested on: NCI-H226
# [30] = tested on: A549
# [31] = tested on: SR
# [32] = tested on: U-251
# [33] = tested on: SK-MEL-28
# [34] = tested on: RXF 393
# [35] = tested on: OVCAR-8
# [36] = tested on: DMS-273
# [37] = tested on: RXF 631
# [38] = tested on: HT-29
# [39] = tested on: COLO 205
# [40] = tested on: SK-OV-3
# [41] = tested on: SK-MEL-2
# [42] = tested on: HCT-15
# [43] = tested on: HL-60
# [44] = tested on: OVCAR-5
# [45] = tested on: SN12C
# [46] = tested on: IGROV-1
# [47] = tested on: HCC 2998
# [48] = tested on: TK-10
# [49] = tested on: NCI-H522
# [50] = tested on: HOP-62
# [51] = tested on: DMS-114
# [52] = tested on: OVCAR-4
# [53] = tested on: SF-539
# [54] = tested on: SK-MEL-5
# [55] = tested on: SNB-75
# [56] = tested on: HOP-18
# [57] = tested on: A498
# [58] = tested on: HOP-92
# [59] = tested on: RPMI-8226
compound,measurement,setting,value
Cc1nc(-n2nc(-c3ccccc3)cc2-c2ccccc2)sc1C(=O)/C=C/c1ccc(/C=C/C(=O)c2sc(-n3nc(-c4ccccc4)cc3-c3ccccc3)nc2C)cc1,GI50,[1],30.6 µM (inactive)
same,GI50,[2],20.8 µM (inactive)
same,GI50,[3],20 µM (inactive)
same,GI50,[4],29 µM (inactive)
same,GI50,[5],19.1 µM (inactive)
same,GI50,[6],27.7 µM (inactive)
same,GI50,[7],18.8 µM (inactive)
same,GI50,[8],22.2 µM (inactive)
same,GI50,[9],23.2 µM (inactive)
same,GI50,[10],19.9 µM (inactive)
same,GI50,[11],20.1 µM (inactive)
same,GI50,[12],21.8 µM (inactive)
same,GI50,[13],21 µM (inactive)
same,GI50,[14],20 µM (inactive)
same,GI50,[15],18.6 µM (inactive)
same,GI50,[16],30.3 µM (inactive)
same,GI50,[17],19.1 µM (inactive)
same,GI50,[18],46.5 µM (inactive)
same,GI50,[19],> 10 µM (inactive)
same,GI50,[20],19.1 µM (inactive)
same,GI50,[21],33.4 µM (inactive)
same,GI50,[22],23.9 µM (inactive)
same,GI50,[23],19.8 µM (inactive)
same,GI50,[24],25.9 µM (inactive)
same,GI50,[25],21.8 µM (inactive)
same,GI50,[26],20.8 µM (inactive)
same,GI50,[27],25.1 µM (inactive)
same,GI50,[28],34.8 µM (inactive)
same,GI50,[29],26.8 µM (inactive)
same,GI50,[30],39 µM (inactive)
same,GI50,[31],27.2 µM (inactive)
same,GI50,[32],19 µM (inactive)
same,GI50,[33],19.5 µM (inactive)
same,GI50,[34],22.8 µM (inactive)
same,GI50,[35],32.8 µM (inactive)
same,GI50,[36],21.1 µM (inactive)
same,GI50,[37],28.1 µM (inactive)
same,GI50,[38],21.6 µM (inactive)
same,GI50,[39],20.2 µM (inactive)
same,GI50,[40],> 100 µM (inactive)
same,GI50,[41],22.1 µM (inactive)
same,GI50,[42],34.3 µM
same,GI50,[43],32.9 µM (inactive)
same,GI50,[44],25.5 µM (inactive)
same,GI50,[45],19.6 µM (inactive)
same,GI50,[46],15.2 µM (inactive)
same,GI50,[47],20.1 µM (inactive)
same,GI50,[48],34.1 µM (inactive)
same,GI50,[49],17.8 µM (inactive)
same,GI50,[50],23.6 µM (inactive)
same,GI50,[51],36.9 µM (inactive)
same,GI50,[52],35.2 µM (inactive)
same,GI50,[53],19.2 µM (inactive)
O=C(CCC(=O)Nc1ccccc1C(F)(F)F)N/N=C1\C(=N\NC(=O)CCC(=O)Nc2ccccc2C(F)(F)F)C(c2ccc3c(c2)OCO3)Oc2ccccc21 (stereo unspecified),GI50,[54],7.74 µM (inactive)
same,GI50,[1],4.26 µM (inactive)
same,GI50,[2],3.43 µM (inactive)
same,GI50,[3],> 100 µM (inactive)
same,GI50,[4],4.02 µM (inactive)
same,GI50,[5],22.8 µM (inactive)
same,GI50,[7],26.2 µM (inactive)
same,GI50,[8],10.1 µM (inactive)
same,GI50,[9],3.01 µM (inactive)
same,GI50,[10],6.46 µM (inactive)
same,GI50,[11],5.64 µM (inactive)
same,GI50,[12],13.2 µM (inactive)
same,GI50,[13],> 100 µM (inactive)
same,GI50,[14],6.28 µM (inactive)
same,GI50,[15],8.63 µM (inactive)
same,GI50,[16],3.54 µM (inactive)
same,GI50,[17],> 100 µM (inactive)
same,GI50,[18],9.79 µM (inactive)
same,GI50,[19],5.46 µM (inactive)
same,GI50,[20],97.1 µM (inactive)
same,GI50,[55],10 µM (inactive)
same,GI50,[21],25.8 µM (inactive)
same,GI50,[56],> 100 µM (inactive)
same,GI50,[22],8.32 µM (inactive)
same,GI50,[23],5.9 µM (inactive)
same,GI50,[24],18.4 µM (inactive)
same,GI50,[25],34.2 µM (inactive)
same,GI50,[26],5.04 µM (inactive)
same,GI50,[27],3.01 µM (inactive)
same,GI50,[28],6.22 µM (inactive)
same,GI50,[29],10.6 µM (inactive)
same,GI50,[30],7.16 µM (inactive)
same,GI50,[31],3.59 µM (inactive)
same,GI50,[32],4.97 µM (inactive)
same,GI50,[33],> 100 µM (inactive)
same,GI50,[34],11.8 µM (inactive)
same,GI50,[35],7.87 µM (inactive)
same,GI50,[36],5.58 µM (inactive)
same,GI50,[37],14 µM (inactive)
same,GI50,[38],35.9 µM (inactive)
same,GI50,[39],> 100 µM (inactive)
same,GI50,[40],20.7 µM (inactive)
same,GI50,[57],51.3 µM (inactive)
same,GI50,[58],17.9 µM (inactive)
same,GI50,[41],> 31.9 µM (inactive)
same,GI50,[42],5.33 µM
same,GI50,[43],3.4 µM (inactive)
same,GI50,[44],> 100 µM (inactive)
same,GI50,[45],6.46 µM (inactive)
same,GI50,[46],16.9 µM (inactive)
same,GI50,[47],> 100 µM (inactive)
same,GI50,[59],4.44 µM (inactive)
same,GI50,[48],> 64.7 µM (inactive)
same,GI50,[49],4.74 µM (inactive)
same,GI50,[50],4.28 µM (inactive)
same,GI50,[51],2.74 µM (inactive)
same,GI50,[52],9.95 µM (inactive)
same,GI50,[53],12 µM (inactive)

# From ChEMBL document CHEMBL1201862, “PubChem BioAssay data set” (2004)
